Data reported in PMC1242219, “Anthracyclines, proteasome activity and multi-drug-resistance” (BMC Cancer, 2005).
Read-outs that look alike come from different tables or passages of the source. Peptide text beside a SMILES is read from it. * marks the point of attachment. Cbz = O=C(OCc1ccccc1)*

Experiments:
26S proteasome = target: T1, 26S proteasome (Homo sapiens, UniProt P28074); test: Chymotrypsin-like 26S proteasome function in crude cell extracts (SucLLVY-AMC fluorogenic peptide assay); format: biochemical; details: for Chymotryptic 26S Proteasome Activity in Lysates from ECV 304 Cells: activity relative to 0 μM = 1, mean ± SEM; for Effect on 26S proteasome function: data not shown
T1 construct: endogenous in cells; host or cells: ECV304 cells, crude extract
T1 sequence (P28074 60-263): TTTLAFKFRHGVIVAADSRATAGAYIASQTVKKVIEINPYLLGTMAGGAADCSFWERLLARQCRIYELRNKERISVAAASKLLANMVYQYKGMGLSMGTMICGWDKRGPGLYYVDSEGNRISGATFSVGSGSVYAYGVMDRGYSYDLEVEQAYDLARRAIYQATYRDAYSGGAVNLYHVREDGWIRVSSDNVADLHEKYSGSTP
Protocol: (§1) 20S and 26S proteasome function was measured as described previously (20). Briefly, cells were washed with PBS, then with buffer I (50 mM Tris, pH 7.4, 2 mM DTT, 5 mM MgCl2, 2 mM ATP), and pelleted by centrifugation. Glass beads and homogenization buffer (50 mM Tris, pH 7.4, 1 mM DTT, 5 mM MgCl2, 2 mM ATP, 250 mM sucrose) were added and vortexed for 1 minute. Beads and cell debris were removed by centrifugation at 1,000 × g for 5 minutes and 10,000 × g for 20 minutes. Protein concentration was determined by the BCA protocol (Pierce). One hundred μg protein of each sample was diluted with buffer I to a final volume of 1000 μl and the fluorogenic proteasome substrate SucLLVY-7-amido-4-methylcoumarin (chymotrypsin-like, Sigma) was added in a final concentration of 80 μM in 1% DMSO. To access 20S function, buffer I was replaced by an ATP-free buffer containing SDS (20 mM HEPES, pH 7.8; 0.5 mM EDTA, 0.03% SDS). Cleavage activity was monitored continuously by detection of free 7-amido-4-methylcoumarin using a fluorescence plate reader (Gemini, Molecular Devices) at 380/460 nm and 37°C. As controls for drug studies, 7-amido-4-methylcoumarin (AMC, 2 μM) was incubated with drugs in buffer I without cell extracts and measurements of proteasome function were corrected when necessary.

20S proteasome = target: T2, 20S proteasome (Homo sapiens, UniProt P28074); test: Chymotrypsin-like 20S proteasome function in crude cell extracts (ATP-free buffer with SDS, SucLLVY-AMC); format: biochemical
T2 construct: Chymotryptic 20S Proteasome Activity in Lysates from ECV 304 Cells; endogenous in cells; host or cells: ECV304 cells, crude extract
T2 sequence (P28074 60-263): T1 sequence (P28074 60-263)
Protocol: as §1

ECV304 cells = test: Drug accumulation assay: doxorubicin in cytoplasm and nuclear fraction of ECV304 cells; format: cell-based, human; details: MG-132 25 μM
Protocol: Stock solutions of all cytotoxic drugs were obtained from the hospital pharmacy of the University Clinic Freiburg. […] Control cells were subjected to DMSO treatment alone (0.5 %).
Growth medium on cells was replaced by PBS for 40 minutes at 37°C. This was replaced by fresh PBS containing daunorubicin or doxorubicin and MG-132 or anthracyclines alone. […] After drug treatment, the cells were washed twice with PBS, re-suspended in either 4 ml lysis buffer (0.3 M sucrose, 0.05 mM EGTA pH 8.0, 60 mM KCl, 15 mM NaCl, 15 mM HEPES pH 7.5, 150 μM spermine, 50 μM spermidine) containing 20 μl triton X-100 for nuclear isolation or 400 μl of 50% ethanol in 1 M HCl (v/v) for whole cell lysis. For the latter, cells were vortexed and diluted with water to a final volume of 1.4 ml. The cells in lysis buffer were mixed and left on ice for 15 minutes before centrifuging. The nuclei (pellet) were then vortexed with 400 μl HCl/isopropanol.

KB 8.5 cells = test: Apoptosis / morphological toxicity of KB 8.5 cells treated with MG-132; format: cell-based, human
Excerpt: The human epitheloid carcinoma cell line KB 8-5 is a well-characterized tumor cell line that over-expresses mdr-1 with associated MDR.

P-glycoprotein = target: T3, P-glycoprotein (Homo sapiens, UniProt P08183); test: Drug accumulation assay: daunorubicin fluorescence in P-gp overexpressing KB 8-5 cells; format: cell-based; details: different doses of MG-132 (0, 6.25, 12.5, 25, 50 μM), daunorubicin 10 μM, 45 minutes
T3 construct: accumulation of daunorubicin in KB 8-5 cells that overexpress P-glycoprotein; endogenous in cells; host or cells: KB 8.5 (KB 8-5) cells, maintained under colchicine selection
Protocol: Every 21 days P-gp-positive KB 8.5 cells were selected by addition of colchicine (10 ng/ml, Sigma). 24 hours before drug treatment cells were plated into 6-well plates (Costar) at a density of 10^6 cells/well.
Growth medium on cells was replaced by PBS for 40 minutes at 37°C. […] After drug treatment, the cells were washed twice with PBS, re-suspended in either 4 ml lysis buffer (0.3 M sucrose, 0.05 mM EGTA pH 8.0, 60 mM KCl, 15 mM NaCl, 15 mM HEPES pH 7.5, 150 μM spermine, 50 μM spermidine) containing 20 μl triton X-100 for nuclear isolation or 400 μl of 50% ethanol in 1 M HCl (v/v) for whole cell lysis. For the latter, cells were vortexed and diluted with water to a final volume of 1.4 ml. The cells in lysis buffer were mixed and left on ice for 15 minutes before centrifuging. The nuclei (pellet) were then vortexed with 400 μl HCl/isopropanol.

[1] = system: proteasome function (Ub-GFP accumulation) in ECV304/10 cells; test: Proteasome function in living ECV304/10 cells stably transfected with Ub-R-GFP fusion protein (fluorescence microscopy); format: cell-based, human; details: 100 μM
Protocol: ECV304 cells were plated at a density of 250.000 cells/well into six-well plates twelve hours before transfection. Cells were transfected with 5 μg of a plasmid (pEGFP-N1, Clontech) coding for an ubiquitin (Ub)-R-GFP fusion protein under control of a CMV promoter (a kind gift from Dr. M. Masucci, Karolinska Institute, Sweden) using the Superfect transfection kit (Qiagen) and following the manufacturer's instructions. Transfected cells were maintained in DMEM (10 % FSC, 1 % penicillin/streptomycin) supplemented with 500 μg/ml G418 (Sigma) and clones were obtained.

[2] = crude extracts of ECV304 cells, 0 – 100 μM drug, read-out: IC50, inhibition of 26S proteasome function
[3] = 6.25 μM, activity relative to 0 μM = 1, mean ± SEM
[4] = 25 μM, activity relative to 0 μM = 1, mean ± SEM
[5] = 50 μM, activity relative to 0 μM = 1, mean ± SEM
[6] = 100 μM, activity relative to 0 μM = 1, mean ± SEM

T3 sequence (P08183 whole entry): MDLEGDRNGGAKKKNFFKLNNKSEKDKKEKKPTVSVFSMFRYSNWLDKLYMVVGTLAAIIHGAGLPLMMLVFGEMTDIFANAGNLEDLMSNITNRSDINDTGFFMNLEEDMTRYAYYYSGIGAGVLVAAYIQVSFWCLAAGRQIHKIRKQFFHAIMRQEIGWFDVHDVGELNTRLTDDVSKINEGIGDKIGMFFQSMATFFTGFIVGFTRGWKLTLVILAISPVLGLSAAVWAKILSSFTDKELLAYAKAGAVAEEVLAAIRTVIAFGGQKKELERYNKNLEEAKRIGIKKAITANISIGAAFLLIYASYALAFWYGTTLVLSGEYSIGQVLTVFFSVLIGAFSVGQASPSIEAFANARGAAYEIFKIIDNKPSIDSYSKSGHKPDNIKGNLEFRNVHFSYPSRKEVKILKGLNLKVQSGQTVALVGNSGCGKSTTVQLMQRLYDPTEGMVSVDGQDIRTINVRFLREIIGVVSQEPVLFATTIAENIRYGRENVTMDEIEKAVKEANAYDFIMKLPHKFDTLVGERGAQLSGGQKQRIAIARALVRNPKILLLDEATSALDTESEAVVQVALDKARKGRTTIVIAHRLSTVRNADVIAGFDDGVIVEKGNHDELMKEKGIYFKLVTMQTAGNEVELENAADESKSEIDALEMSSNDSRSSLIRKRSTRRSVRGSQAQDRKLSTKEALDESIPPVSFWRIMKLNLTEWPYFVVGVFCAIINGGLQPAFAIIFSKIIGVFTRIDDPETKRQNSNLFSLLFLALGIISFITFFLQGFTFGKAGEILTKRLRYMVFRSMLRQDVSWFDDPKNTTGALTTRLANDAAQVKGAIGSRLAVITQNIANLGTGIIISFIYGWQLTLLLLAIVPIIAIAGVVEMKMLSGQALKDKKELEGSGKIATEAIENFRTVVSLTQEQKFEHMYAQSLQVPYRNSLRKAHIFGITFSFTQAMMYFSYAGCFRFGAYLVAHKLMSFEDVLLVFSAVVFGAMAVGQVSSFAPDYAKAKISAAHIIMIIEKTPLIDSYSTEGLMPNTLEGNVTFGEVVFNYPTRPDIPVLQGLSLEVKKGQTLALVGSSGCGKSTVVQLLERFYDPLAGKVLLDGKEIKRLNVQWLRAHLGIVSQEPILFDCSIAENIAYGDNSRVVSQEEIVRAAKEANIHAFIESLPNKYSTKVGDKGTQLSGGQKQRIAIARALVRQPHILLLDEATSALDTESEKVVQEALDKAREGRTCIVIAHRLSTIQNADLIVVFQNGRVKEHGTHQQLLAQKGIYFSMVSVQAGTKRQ

CC(=O)[C@]1(O)Cc2c(O)c3c(c(O)c2[C@@H](O[C@H]2C[C@H](N)[C@H](O)[C@H](C)O2)C1)C(=O)c1ccccc1C3=O [idarubicin]
Chymotryptic 26S Proteasome Activity in Lysates from ECV 304 Cells (26S proteasome; 6.25 μM): 0.97 ± 0.03 n.s. | Chymotryptic 26S Proteasome Activity in Lysates from ECV 304 Cells (26S proteasome; 12.5 μM): 0.96 ± 0.02 n.s. | Chymotryptic 26S Proteasome Activity in Lysates from ECV 304 Cells (26S proteasome; 25 μM): 0.79 ± 0.12 n.s. | Chymotryptic 26S Proteasome Activity in Lysates from ECV 304 Cells (26S proteasome; 50 μM): 0.28 ± 0.09 | Chymotryptic 26S Proteasome Activity in Lysates from ECV 304 Cells (26S proteasome; 100 μM): 0.1 ± 0.06 | IC50 (26S proteasome; [2]): 38.6 µM | Chymotryptic 20S Proteasome Activity in Lysates from ECV 304 Cells (20S proteasome; [3]): 0.67 ± 0.07 | Chymotryptic 20S Proteasome Activity in Lysates from ECV 304 Cells (20S proteasome; 12.5 μM, activity relative to 0 μM = 1, mean ± SEM): 0.67 ± 0.08 | Chymotryptic 20S Proteasome Activity in Lysates from ECV 304 Cells (20S proteasome; [4]): 0.69 ± 0.05 | Chymotryptic 20S Proteasome Activity in Lysates from ECV 304 Cells (20S proteasome; [5]): 0.67 ± 0.05 | Chymotryptic 20S Proteasome Activity in Lysates from ECV 304 Cells (20S proteasome; [6]): 0.49 ± 0.11 | IC50 (20S proteasome; crude extracts of ECV304 cells): 92 µM

Nc1ccn([C@@H]2O[C@H](CO)[C@@H](O)C2(F)F)c(=O)n1 [gemcitabine]
Effect on 26S proteasome function (26S proteasome; crude extracts of ECV304 cells): no measurable effect

CC(C)C[C@@H](C=O)NC(=O)[C@H](CC(C)C)NC(=O)[C@H](CC(C)C)NC(=O)OCc1ccccc1 [MG-132] (Cbz-Leu-Leu-Leu-aldehyde)
Uptake of doxorubicin in the cytoplasm and in the nuclear fraction (ECV304 cells): increased uptake of doxorubicin | Morphological signs of toxicity (KB 8.5 cells; KB 8-5 cells, 50 μM, 45 minutes of incubation): no morphological signs of toxicity | Induction of apoptosis (KB 8.5 cells; KB 8.5 cells, 3.125 to 50 μM, within 24 hours, preliminary experiments): induced apoptosis | Accumulation of daunorubicin in KB 8-5 cells (P-glycoprotein): increased, dose-dependent accumulation of daunorubicin

COc1cccc2c1C(=O)c1c(O)c3c(c(O)c1C2=O)C[C@@](O)(C(=O)CO)C[C@@H]3O[C@H]1C[C@H](N)[C@H](O)[C@H](C)O1 [doxorubicin]
GFP accumulation indicating inhibition of proteasome function in living cells ([1]; ECV304/10 cells, 12 hours): GFP accumulated throughout the cytoplasm | IC50 (26S proteasome): 65.5 µM | IC50 (20S proteasome): 5.8 µM

CO[C@@]12[C@H](COC(N)=O)C3=C(C(=O)C(C)=C(N)C3=O)N1C[C@@H]1N[C@@H]12 [mitomycin C]
Effect on 26S proteasome function (26S proteasome; crude extracts of ECV304 cells): no measurable effect

CC[C@@]1(O)C(=O)OCc2c1cc1n(c2=O)Cc2cc3c(CN(C)C)c(O)ccc3nc2-1 [Topotecan, topotecan]
Effect on 26S proteasome function (26S proteasome; crude extracts of ECV304 cells): no measurable effect

COc1cccc2c1C(=O)c1c(O)c3c(c(O)c1C2=O)C[C@@](O)(C(=O)CO)C[C@@H]3O[C@H]1C[C@H](N)[C@@H](O)[C@H](C)O1 [epirubicin]
IC50 (26S proteasome): 29.2 µM | IC50 (20S proteasome): 12.5 µM

COc1cccc2c1C(=O)c1c(O)c3c(c(O)c1C2=O)C[C@@](O)(C(C)=O)C[C@@H]3O[C@H]1C[C@H](N)[C@H](O)[C@H](C)O1 [daunorubicin]
GFP accumulation indicating proteasome inhibition in living cells ([1]; ECV304 Ub-GFP cells, 16 h (Figure 2 legend)): accumulation of GFP throughout the cytoplasm | Chymotryptic 26S Proteasome Activity in Lysates from ECV 304 Cells (26S proteasome; 6.25 μM): 0.85 ± 0.05 | Chymotryptic 26S Proteasome Activity in Lysates from ECV 304 Cells (26S proteasome; 12.5 μM): 0.53 ± 0.11 | Chymotryptic 26S Proteasome Activity in Lysates from ECV 304 Cells (26S proteasome; 25 μM): 0.22 ± 0.09 | Chymotryptic 26S Proteasome Activity in Lysates from ECV 304 Cells (26S proteasome; 50 μM): 0.12 ± 0.06 | Chymotryptic 26S Proteasome Activity in Lysates from ECV 304 Cells (26S proteasome; 100 μM): 0.11 ± 0.06 | IC50 (26S proteasome; [2]): 13.7 µM | Chymotryptic 20S Proteasome Activity in Lysates from ECV 304 Cells (20S proteasome): 0.64 ± 0.07 n.s. | Chymotryptic 20S Proteasome Activity in Lysates from ECV 304 Cells (20S proteasome; [3]): 0.62 ± 0.19 n.s. | Chymotryptic 20S Proteasome Activity in Lysates from ECV 304 Cells (20S proteasome; [4]): 0.81 ± 0.05 n.s. | Chymotryptic 20S Proteasome Activity in Lysates from ECV 304 Cells (20S proteasome; [5]): 0.95 ± 0.04 n.s. | Chymotryptic 20S Proteasome Activity in Lysates from ECV 304 Cells (20S proteasome; [6]): 1.05 ± 0.1 n.s. | Inhibition of 20S proteasome function (20S proteasome; crude extracts of ECV304 cells, up to 100 μM): not
